Assay results from patent publication US11033538B2, “Dosing regimens for the treatment of lysosomal storage diseases using pharmacological chaperones” (Amicus Therapeutics, Inc., priority 2007, dated 2021).

Key:
hR301Q GLA = molecular target: T1, hR301Q GLA (Homo sapiens, UniProt P06280, R301Q); experiment: Example 12, GLA activity and protein in tissues of hR301Q GLA Tg/KO mice; assay type: in vivo; conditions: 4 weeks
T1 construct: from tissue; host or cells: skin, heart, kidney lysates of hR301Q GLA Tg/KO mice
T1 sequence (P06280 32-429 R301Q): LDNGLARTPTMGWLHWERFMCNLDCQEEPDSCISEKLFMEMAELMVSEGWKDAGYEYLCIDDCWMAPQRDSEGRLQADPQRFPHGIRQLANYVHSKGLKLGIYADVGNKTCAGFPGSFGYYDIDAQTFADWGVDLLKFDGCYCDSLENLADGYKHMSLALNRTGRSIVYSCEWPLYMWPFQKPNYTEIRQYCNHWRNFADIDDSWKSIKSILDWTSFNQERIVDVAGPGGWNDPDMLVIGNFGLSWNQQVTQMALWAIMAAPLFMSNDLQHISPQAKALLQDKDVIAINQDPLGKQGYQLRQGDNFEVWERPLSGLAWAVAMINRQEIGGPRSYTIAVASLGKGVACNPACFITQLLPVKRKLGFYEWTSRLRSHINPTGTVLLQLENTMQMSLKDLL
Experimental: Tissue lysates from skin, heart, and kidney were prepared and tested for GLA activity (using 4-MUG as substrate, expressed in nmol/mg protein/hr), GLA protein (using immunoblotting of […] tissue lysate with anti-human GLA antibody) and GL-3 levels (using LC-MS/MS, expressed in mg/g of tissue weight). […] Each bar represents the mean±SEM of n=7-8 mice/group. Each lane in the Western blots represents one mouse from each group.

[1] = test system: patients with Fabry disease; experiment: Example 15, renal function assessment; assay type: in vivo, human
Experimental: Annualized rates of change (mL/min/1.73 m^2/year) were calculated using Chronic Kidney Disease Epidemiology Collaboration-eGFRCKD-EPI) and measured iohexol clearance-mGFRiohexol).

Fabry patients = experiment: Example 6, cardiac analysis; assay type: in vivo, human
Experimental: In addition to the biopsies described above, MRIs, electrocardiograms and echocardiograms with strain rate evaluations was performed at baseline and periodically throughout the study to assess cardiac morphology (e.g., left ventricular hyertrophy) and cardiac function (e.g., ejection fraction and conduction/rhythm abnormalities).

[2] = up to 24 months of DGJ, mITT-suitable

## OC[C@H]1NC[C@H](O)[C@@H](O)[C@H]1O [DGJ, (2R,3S,4R,5S)-2-(hydroxymethyl) piperdine-3,4,5-triol]
hR301Q GLA; 3, 10, 30, 100 or 300 mg/kg/day, p<0.05 vs. untreated
  GLA activity in skin, heart, kidney: significant and dose-dependent increase in GLA activity
hR301Q GLA; 3-300 mg/kg/day
  GLA protein (immunoblotting): significant and dose-dependent increase
[1]; baseline to month 6, mITT-suitable
  eGFRCKD-EPI or mGFRIohexol changes, DGJ vs placebo: no statistically significant differences
[1]; [2]
  annualized change in eGFRCKD-EPI (±SEM): −0.30±6.6 mL/min/1.73 m^2
  annualized change in mGFRiohexol (±SEM): −1.51±1.33 mL/min/1.73 m^2
Fabry patients; 2 good responders with abnormally high left ventricle mass, 48 weeks
  left ventricle mass: no change in left ventricle mass
Fabry patients; one good responder with abnormally high left ventricle mass, 12 weeks
  decrease in left ventricle mass: 8%
Fabry patients; two of three good responders with abnormal ejection fraction before treatment
  ejection fraction following treatment: > 55%
